Two molecules from patent US7288541B2, “Propylcarbamate derivatives as inhibitors of serine and cysteine proteases” (SmithKline Beecham Corporation, priority 2001, dated 2007) can be followed below.

Like-named read-outs stand apart in the source and are kept apart here. Where only a bound is given, the exact number is not on record here.

Holding throughout (type): biochemical
One assay deals with T1, human cathepsin B (Homo sapiens, UniProt P07858).
T1 construct: enzyme prepared from human liver tissue; from tissue; host or cells: human liver
Kind of assay: Cathepsin B inhibition, fluorogenic substrate Cbz-Phe-Arg-AMC, progress curve method. The note with it: Table 2, Inhibition of Cathepsins (Ki in nM); enzyme from human liver tissue, 10 μM substrate, pH 5.5; read-out: hCat B IC50. As to the method:
(§1) All assays for cathepsin K were carried out with human and rat recombinant enzyme. Assays for cathepsins S & V were also carried out with human recombinant enzyme. Assays for human cathepsins B, H, and L were carried out with enzyme prepared from human liver tissue. Standard assay conditions for the determination of kinetic constants used a fluorogenic peptide substrate, typically (5S,8S)-13-amino-5-benzyl-13-imino-3-methylene-N-(4-methyl-2-oxo-2H-chromen-7-yl)-6-oxo-1-phenyl-2-oxa-4,7,12-triazatridecane-8-carboxamide (Cbz-Phe-Arg-AMC), and were determined in 100 mM sodium acetate at pH 5.5 containing 10 mM dithiothreitol and 120 mM sodium chloride. […]
(§2) All assays contained 10% dimethyl sulfoxide. […] Product fluorescence (excitation at 360 nm; emission at 440 nm, (except cathepsin H which used excitation at 340 nm; emission at 420 nm)) was monitored with a PerSeptive Biosystems Cytofluor II fluorescence plate reader. […]
(§3) Potential inhibitors were evaluated using the progress curve method. […] For those compounds whose progress curves were linear, the enzymatic activity (RATE) was plotted against the concentration of test compound, including inhibitor concentration of zero ([I]=0), and the IC50 determined from a fit of equation 1 to the data, RATE=Vmax/(1+([I]/IC50)) (1) where Vmax is the best fit estimate of the maximal enzymatic activity. […]

The target of a further assay is T2, human cathepsin K (Homo sapiens, UniProt P43235).
T2 construct: The proform of cathepsin K was converted to mature cathepsin K by brief exposure to pH 4; made in house; host or cells: baculovirus; Trichoplusia ni High Five cells (virus raised in Sf-9)
T2 sequence (P43235 115-329): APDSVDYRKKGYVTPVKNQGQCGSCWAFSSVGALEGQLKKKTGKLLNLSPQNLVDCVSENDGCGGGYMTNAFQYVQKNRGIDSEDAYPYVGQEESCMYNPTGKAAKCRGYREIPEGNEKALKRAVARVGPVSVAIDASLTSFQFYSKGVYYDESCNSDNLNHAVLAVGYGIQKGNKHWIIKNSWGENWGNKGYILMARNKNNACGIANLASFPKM
The experiment in a line: Cathepsin K inhibition, fluorogenic substrate Cbz-Phe-Arg-AMC, progress curve method. Particulars: recombinant human enzyme, 10 μM substrate, read-out: hCat K IC50. As to the method: All assays for cathepsin K were carried out with human and rat recombinant enzyme. Assays for cathepsins S & V were also carried out with human recombinant enzyme. Assays for human cathepsins B, H, and L were carried out with enzyme prepared from human liver tissue. […] A stock substrate solution of Cbz-Phe-Arg-AMC was prepared at a concentration of 50 mM in dimethyl sulfoxide. This substrate was diluted into the assay for a final substrate concentration of 10 μM in the rat cathepsin K, human cathepsin K, and human cathepsin B assays; a final substrate concentration of 5 μM in the human cathepsin L assay; and a final substrate concentration of 2 μM in the human cathepsin V assay.
All assays contained 10% dimethyl sulfoxide. […] All assays were conducted at 30° C. Product fluorescence (excitation at 360 nm; emission at 440 nm, (except cathepsin H which used excitation at 340 nm; emission at 420 nm)) was monitored with a PerSeptive Biosystems Cytofluor II fluorescence plate reader. Product progress curves were generated over 2.3 h monitoring the formation of 7-amino-4-methylcoumarin product (or β-naphthalamide for cathepsin H).
Human and Rat Cathepsin K:
The cells continued to grow for 72 h post-infection, before the virus was harvested by centrifugation at 1400×g for 30 min.
One and one-half liters of Trichoplusia ni (T. ni) High Five (TM) cells [JRH Biosciences, Woodland, Calif. […] The cells were grown for 24 h at 28° C., 50 RPM, and 50% dissolved oxygen. […] Media were separated from cells at a rate of 1 L/min using the Centritech 100 (TM) continuous-flow centrifuge (DuPont) operating at 200×g.
Protein Purification: Media (human and rat) were filtered through a Whatman 3 filter, and then loaded onto a 25 mL Poros HS II (26 mm×47 mm) cation exchange column equilibrated in 25 mM sodium acetate at pH 5.5 (equilibration buffer). The column was washed until the absorbance reached the baseline value, and then the protein was eluted with a linear gradient from 0–2 M sodium chloride in the equilibration buffer. Column fractions were analyzed by SDS-PAGE, N-terminal sequencing, and mass spectrometry. Fractions containing the proform of cathepsin K were pooled and frozen at −80° C. The proform was concentrated in an Amicon Centriprep 10 and fractionated with a Superdex 75 column (26 mm×600 mm, Pharmacia) equilibrated in 400 mM sodium chloride, 25 mM sodium acetate at pH 5.5.
Cathepsin K Activation: The proform of cathepsin K was converted to mature cathepsin K by brief exposure to pH 4 in the presence of 5 mM L-cysteine. Typically, 5 mM L-cysteine was added to 10 mL of approximately 1 mg/mL procathepsin K. One mL of this solution was diluted ten-fold into 450 mM sodium acetate at pH 4.0 containing 5 mM L-cysteine. This solution was reacted at 23° C. for 2 min before neutralization with 2 mL 1.8 M sodium acetate at pH 6.0. The neutralized sample was added to the remaining 9 mL of procathepsin K. The mixture was incubated at 4° C. for 2–3 days. The activated cathepsin K was chromatographed on a Poros HS II column as described above.
Potential inhibitors were evaluated using the progress curve method. Assays were carried out in the presence of variable concentrations of test compound. Reactions were initiated by addition of buffered solutions of inhibitor and substrate to enzyme. Data analysis was conducted according to one of two procedures depending on the appearance of the progress curves in the presence of inhibitors. […] Ki values were calculated from IC50 values using equation 2 assuming a competitive model.

The target of a further assay is human cathepsin S (Homo sapiens, UniProt P25774). Kind of assay: Cathepsin S inhibition, fluorogenic substrate Cbz-Val-Val-Arg-AMC, progress curve method. Particulars: Table 2, Inhibition of Cathepsins (Ki in nM); recombinant human enzyme, 10 μM substrate, pH 5.5; read-out: hCat S IC50. Here is the method:
as §1, §2, §3

The target of another assay is T3, human cathepsin L (Homo sapiens, UniProt P07711).
T3 construct: enzyme prepared from human liver tissue; from tissue; host or cells: human liver
The experiment in a line: Cathepsin L inhibition, fluorogenic substrate Cbz-Phe-Arg-AMC, progress curve method. Particulars: Table 2, Inhibition of Cathepsins (Ki in nM); enzyme from human liver tissue, 5 μM substrate, pH 5.5; read-out: hCat L IC50. Here is the method: as §1, §2, §3

For the next assay, the target named is human cathepsin V (Homo sapiens, UniProt O60911). Kind of assay: Cathepsin V inhibition, fluorogenic substrate Cbz-Phe-Arg-AMC, progress curve method. The note with it: Table 2, Inhibition of Cathepsins (Ki in nM); recombinant human enzyme, 2 μM substrate, pH 5.5; read-out: hCat V IC50. As to the method:
as §1, §2, §3

The mark [1] stands for this setting: Table 1, Inhibition of Cathepsin K (Ki in nM), pH 5.5, 30° C.
Setting [2] is: Table 2, Inhibition of Cathepsins (Ki in nM), pH 5.5.

T3 sequence (P07711 114-288 limits assumed): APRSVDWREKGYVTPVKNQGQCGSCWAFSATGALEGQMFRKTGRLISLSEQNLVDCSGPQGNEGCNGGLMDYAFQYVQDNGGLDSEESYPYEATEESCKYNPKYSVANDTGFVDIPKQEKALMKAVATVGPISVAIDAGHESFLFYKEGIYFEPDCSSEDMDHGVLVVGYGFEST
T3 sequence (P07711 292-333 limits assumed): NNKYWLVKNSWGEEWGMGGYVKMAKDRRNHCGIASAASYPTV
human cathepsin S, sequence (P25774 115-331): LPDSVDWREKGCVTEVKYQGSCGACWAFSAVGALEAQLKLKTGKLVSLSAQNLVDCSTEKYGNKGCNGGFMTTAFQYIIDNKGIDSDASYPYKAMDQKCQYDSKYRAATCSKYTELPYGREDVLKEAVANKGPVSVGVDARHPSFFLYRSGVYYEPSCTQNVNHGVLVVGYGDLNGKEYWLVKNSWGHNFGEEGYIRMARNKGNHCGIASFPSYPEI
human cathepsin V, sequence (O60911 114-334): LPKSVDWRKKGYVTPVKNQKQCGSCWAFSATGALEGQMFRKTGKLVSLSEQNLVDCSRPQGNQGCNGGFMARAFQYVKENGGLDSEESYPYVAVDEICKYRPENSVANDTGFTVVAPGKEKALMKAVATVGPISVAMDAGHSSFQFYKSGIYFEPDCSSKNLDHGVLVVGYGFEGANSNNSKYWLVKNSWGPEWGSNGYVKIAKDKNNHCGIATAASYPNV

In the case of `CCCC[C@H](NC(=O)O[C@@H]1CN(c2nc3ccccc3s2)CC1(C)C)C(=O)CNS(=O)(=O)c1ccccn1` [Example 6, (3S)-1-(1,3-benzothiazol-2-yl)-4,4-dimethylpyrrolidinyl (1S)-1-{[(2-pyridinylsulfonyl)amino]acetyl}pentylcarbamate], the IC50 (commonly the midpoint of a concentration-inhibition curve) on human cathepsin B fell in the range of 1000 to 10000 nM; on human cathepsin K (setting [1]) it was 100 to 1000 nM; at human cathepsin K (setting [2]) it was 100 to 1000 nM; at human cathepsin S, 10 to 100 nM; on human cathepsin L, 1000 to 10000 nM; at human cathepsin V, 100 to 1000 nM.

On to `C[C@H](NC(=O)O[C@H](Cn1cnc2cc(Cl)c(Cl)cc21)C(C)(C)C)C(=O)CNS(=O)(=O)c1ccccn1` [Example 16, (1S)-1-[(5,6-dichloro-1H-benzimidazol-1-yl)methyl]-2,2-dimethylpropyl (1S)-1-methyl-2-oxo-3-[(2-pyridinylsulfonyl)amino]propylcarbamate], for which the IC50 was 10 to 100 nM at human cathepsin B; under 10 nM at human cathepsin K (setting [1]); under 10 nM at human cathepsin K (setting [2]); under 10 nM on human cathepsin S; 10 to 100 nM on human cathepsin L; under 10 nM on human cathepsin V.
